Source: US11479556B1, “Bifunctional compounds for degrading BTK via ubiquitin proteosome pathway” (NURIX THERAPEUTICS, INC., priority 2018, dated 2022)

Columns and labels:
BTK [1] = target: T1, BTK (Homo sapiens, UniProt Q06187); experiment: Cellular BTK HTRF assay (BTK degradation) in TMD8 cells; assay type: cell-based; details: four hours incubation, Total-BTK HTRF relative to DMSO-treated cells
T1 construct: endogenous in cells; host or cells: TMD8 cells
Method in brief: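 TMD8 cells were treated with compounds (final DMSO <0.200) for four hours at 37° C, 5% CO2, then lysed for 30 minutes. Total BTK was measured by two-antibody HTRF, taking the 665/620 nm ratio with background subtracted and expressed relative to DMSO-treated cells. DC50 came from four-parameter nonlinear regression.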

BTK [2] = target: T2, BTK (Mus musculus, UniProt P35991); experiment: Mouse BTK degradation assay with oral dosing; assay type: in vivo; details: CD-1 or BALB/c mice, oral gavage (PO); Yes = significant BTK degradation upon oral dosage
T2 construct: from tissue; host or cells: whole blood or spleen of CD-1 or BALB/c mice
Procedure: Example 68: Mouse BTK Degradation Assay with Oral Dosing
A method of determining the pharmacodynamic profile of compounds of the present invention (experimental compound) was performed by dosing either CD-1 or BALB/c mice with the compound. The experimental compound was prepared in a suitable formulation and was administered via oral gavage (PO) at a suitable dose level and frequency as informed by prior pharmacokinetic and tolerability studies. Following administration of the experimental compound, BTK levels in blood or splenocytes are measured using flow cytometry or HTRF. For assessment of BTK levels via flow cytometry, either whole blood or spleen were first treated with ACK RBC lysis buffer to facilitate lysing of red blood cells. Remaining cells were then stained with fluorophore-conjugated antibodies against CD45, TCR beta and CD45R (B220). Cell pellets were washed with 1×PBS and fixed and permeabilized for 24 hrs with Foxp3/Transcription Factor Fixation/Permeabilization Kit. Cells were then stained intracellularly with unconjugated BTK antibody and detected with a fluorophore-conjugated secondary antibody. Stained cells were run on an Attune NxT Acoustic Focusing Flow Cytometer (Thermo-Fisher A29004), and data was analyzed using FlowJo (v10.5.3) and GraphPad Prism (v7.00) software. Lymphocytes were gated for B cells defined as CD45+ TCR beta− B220+ and T cells as CD45+ TCR beta+ B220−. The BTK geometric mean fluorescence intensity (MFI) was calculated for B and T cells. Percent BTK degradation for each experimental compound treated sample was calculated using the equation described below: […]

T1 sequence (Q06187 whole entry): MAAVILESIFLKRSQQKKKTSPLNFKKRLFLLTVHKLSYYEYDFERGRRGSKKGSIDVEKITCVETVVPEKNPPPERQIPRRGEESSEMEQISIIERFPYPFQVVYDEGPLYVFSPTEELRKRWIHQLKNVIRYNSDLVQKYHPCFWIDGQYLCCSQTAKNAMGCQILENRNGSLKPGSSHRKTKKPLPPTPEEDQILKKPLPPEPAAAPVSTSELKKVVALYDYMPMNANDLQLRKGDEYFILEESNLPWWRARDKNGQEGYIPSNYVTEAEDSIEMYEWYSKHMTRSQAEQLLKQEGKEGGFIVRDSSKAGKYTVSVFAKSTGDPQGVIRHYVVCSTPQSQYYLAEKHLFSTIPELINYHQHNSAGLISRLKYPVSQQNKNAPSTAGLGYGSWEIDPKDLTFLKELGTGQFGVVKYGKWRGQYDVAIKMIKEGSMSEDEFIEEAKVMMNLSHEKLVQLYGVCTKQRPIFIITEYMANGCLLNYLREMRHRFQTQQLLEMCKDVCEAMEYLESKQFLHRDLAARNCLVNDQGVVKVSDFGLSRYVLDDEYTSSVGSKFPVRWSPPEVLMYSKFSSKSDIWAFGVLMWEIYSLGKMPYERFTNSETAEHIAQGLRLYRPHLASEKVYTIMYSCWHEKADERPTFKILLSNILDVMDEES
T2 sequence (P35991 whole entry): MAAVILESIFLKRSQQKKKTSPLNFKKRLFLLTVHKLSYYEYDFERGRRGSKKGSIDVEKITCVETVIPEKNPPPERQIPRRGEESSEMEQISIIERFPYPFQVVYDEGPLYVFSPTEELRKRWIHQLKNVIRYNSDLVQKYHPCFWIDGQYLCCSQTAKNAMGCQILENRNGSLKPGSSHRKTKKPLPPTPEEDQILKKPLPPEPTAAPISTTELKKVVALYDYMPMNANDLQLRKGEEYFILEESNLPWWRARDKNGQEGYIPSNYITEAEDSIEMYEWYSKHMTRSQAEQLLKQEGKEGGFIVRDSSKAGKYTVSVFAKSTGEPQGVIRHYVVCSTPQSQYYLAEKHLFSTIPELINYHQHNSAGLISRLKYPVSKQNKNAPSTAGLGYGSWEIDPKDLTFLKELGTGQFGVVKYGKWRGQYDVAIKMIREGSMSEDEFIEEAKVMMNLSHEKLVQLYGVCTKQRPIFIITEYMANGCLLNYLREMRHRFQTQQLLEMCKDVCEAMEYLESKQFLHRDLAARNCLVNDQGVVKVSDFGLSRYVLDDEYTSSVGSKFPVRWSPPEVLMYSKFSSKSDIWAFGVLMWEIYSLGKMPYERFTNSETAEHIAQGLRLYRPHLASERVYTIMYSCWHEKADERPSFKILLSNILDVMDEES

Compound | DC50 (BTK [1]) [nM] | BTK degradation after oral dosing (BTK [2])
Cn1cc(Nc2nc(N3CCC[C@H](N4CC5(CN(CC6CCN(c7ccc(C(=O)NC8CCC(=O)NC8=O)nc7)CC6)C5)OC4=O)C3)cnc2C(N)=O)cn1 (stereo partly shown) [Compound 131] | < 5 | Yes
CN1CCN([C@@H]2CCCN(c3cnc(C(N)=O)c(Nc4ccc(C5CCN(CC6CCN(c7ccc8c(=O)n(C9CCC(=O)NC9=O)ccc8c7)CC6)CC5)cc4)n3)C2)C1=O (stereo partly shown) [Compound 72] | < 5 | Yes
NC(=O)c1ncc(N2CCC[C@H](N3CCOC3=O)C2)nc1Nc1ccc(N2CCC(C3CN(c4ccc5c(c4)C(=O)N(C4CCC(=O)NC4=O)C5=O)C3)CC2)cc1 (stereo partly shown) [Compound 70] | < 5 | Yes
NC(=O)c1ncc(N2CCC[C@@H](N3CCOC3=O)C2)nc1Nc1ccc(C2CCN(C[C@H]3CCN(c4ccc5c(c4)C(=O)N(C4CCC(=O)NC4=O)C5=O)C3)CC2)cc1 (stereo partly shown) [Compound 73] | < 5 | Yes
NC(=O)c1ncc(-c2nccs2)nc1Nc1ccc(N2CCC3(CCN(Cc4ccc5c(c4)C(=O)N(C4CCC(=O)NC4=O)C5=O)CC3)CC2)cc1 (stereo not shown) [Compound 150] | 5 to 15 | Yes

Other lines, results leading:

DC50 (BTK [1]) [nM] | BTK degradation after oral dosing (BTK [2]) | Compound
< 5 | Yes | CN1CCN([C@H]2CCCN(c3cnc(C(N)=O)c(Nc4ccc(C5(C)CCN(C6CN(c7ccc8c(c7)C(=O)N(C7CCC(=O)NC7=O)C8=O)C6)CC5)cc4)n3)C2)C1=O (stereo partly shown) [Compound 74]
< 5 | Yes | CN1CCN([C@@H]2CCCN(c3cnc(C(N)=O)c(Nc4ccc(C5CCN(C[C@H]6CCN(c7ccc8c(c7)C(=O)N(C7CCC(=O)NC7=O)C8=O)C6)CC5)cc4)n3)C2)C1=O (stereo partly shown) [Compound 44]
< 5 | Yes | CN1CCN([C@@H]2CCCN(c3cnc(C(N)=O)c(Nc4ccc(C5(C)CCN(C[C@H]6CCN(c7ccc8c(c7)C(=O)N(C7CCC(=O)NC7=O)C8=O)C6)CC5)cc4)n3)C2)C1=O (stereo partly shown) [Compound 71]
